We go through 16 compounds from the NIST ThermoML archive (doi:10.1016/j.jct.2008.12.005).

The structures appear in SMILES notation. Numbers after ± are expanded uncertainties.

This data set can be described thus: activity coefficient (dimensionless); of the first substance listed, at infinite dilution; xn = mol fraction of the nth substance listed. The note with it: 101 kPa, Liquid, Chromatography, x1 = 0.

Regarding `CCCCCCC` [heptane] + CC[S+](CC)CC.O=S(=O)([N-]S(=O)(=O)C(F)(F)F)C(F)(F)F, the activity coefficient (298.15 K) came out at 40.4 ± 2.8; the activity coefficient (308.15 K) is 36.9 ± 2.5; the activity coefficient (318.15 K) was found to be 33.5 ± 2.3; the activity coefficient (328.15 K) came to 30.5 ± 2.1; the activity coefficient (338.15 K) was 28.1 ± 1.9; the activity coefficient (348.15 K) came to 26 ± 1.8. In addition, the activity coefficient reads like this: (358.15 K) 24.1 ± 1.6; (368.15 K) 22.5 ± 1.5.

Turning to `C=CCCCCCC` [oct-1-ene] + CC[S+](CC)CC.O=S(=O)([N-]S(=O)(=O)C(F)(F)F)C(F)(F)F, the activity coefficient runs as follows: (298.15 K) 27 ± 1.8; (308.15 K) 25 ± 1.7; (318.15 K) 23.2 ± 1.6; (328.15 K) 21.8 ± 1.5; (338.15 K) 20.4 ± 1.4; (348.15 K) 19.2 ± 1.3. The activity coefficient was determined as 18.2 ± 1.2 (358.15 K) and 17.3 ± 1.2 (368.15 K).

In the case of `CCCO` [propan-1-ol] + CC[S+](CC)CC.O=S(=O)([N-]S(=O)(=O)C(F)(F)F)C(F)(F)F, the activity coefficient turned out to be 2.49 ± 0.17 (308.15 K); 2.24 ± 0.15 (318.15 K); 2.04 ± 0.14 (328.15 K); 1.85 ± 0.12 (338.15 K); 1.7 ± 0.11 (348.15 K); 1.57 ± 0.1 (358.15 K). The activity coefficient (368.15 K) stood at 1.46 ± 0.1.

For the compound `CCCCCCCCCC` [decane] + CC[S+](CC)CC.O=S(=O)([N-]S(=O)(=O)C(F)(F)F)C(F)(F)F, the activity coefficient is, setting by setting: (298.15 K) 131 ± 9; (308.15 K) 114 ± 8; (318.15 K) 101 ± 7; (328.15 K) 89.6 ± 6.1; (338.15 K) 80 ± 5.5; (348.15 K) 72.5 ± 5. For the same compound, the activity coefficient was found to be 65.8 ± 4.5 (358.15 K) and 59.7 ± 4.1 (368.15 K).

For `O` [water] + CC[S+](CC)CC.O=S(=O)([N-]S(=O)(=O)C(F)(F)F)C(F)(F)F, the activity coefficient runs as follows: (308.15 K) 3.91 ± 0.27; (318.15 K) 3.39 ± 0.23; (328.15 K) 2.97 ± 0.2; (338.15 K) 2.63 ± 0.18; (348.15 K) 2.33 ± 0.16; (358.15 K) 2.08 ± 0.14. Besides, the activity coefficient (368.15 K) worked out at 1.88 ± 0.13.

On to `C1CCOC1` [tetrahydrofuran] + CC[S+](CC)CC.O=S(=O)([N-]S(=O)(=O)C(F)(F)F)C(F)(F)F, for which the activity coefficient is, setting by setting: (298.15 K) 0.788 ± 0.051; (308.15 K) 0.803 ± 0.052; (318.15 K) 0.82 ± 0.053; (328.15 K) 0.834 ± 0.054; (338.15 K) 0.846 ± 0.054; (348.15 K) 0.859 ± 0.055. For the same compound, the activity coefficient is, setting by setting: (358.15 K) 0.872 ± 0.056; (368.15 K) 0.885 ± 0.056.

Turning to `CCCCC` [pentane] + CC[S+](CC)CC.O=S(=O)([N-]S(=O)(=O)C(F)(F)F)C(F)(F)F, the activity coefficient reads like this: (298.15 K) 21.6 ± 1.5; (308.15 K) 19.9 ± 1.4; (318.15 K) 18.3 ± 1.3; (328.15 K) 16.8 ± 1.1; (338.15 K) 15.6 ± 1.1; (348.15 K) 14.6 ± 1. In addition, the activity coefficient by setting is: (358.15 K) 13.5 ± 0.9; (368.15 K) 12.7 ± 0.9.

On to `Cc1ccc(C)cc1` [1,4-dimethylbenzene] + CC[S+](CC)CC.O=S(=O)([N-]S(=O)(=O)C(F)(F)F)C(F)(F)F, for which the activity coefficient is, setting by setting: (308.15 K) 2.27 ± 0.15; (318.15 K) 2.3 ± 0.16; (328.15 K) 2.32 ± 0.16; (338.15 K) 2.34 ± 0.16; (348.15 K) 2.36 ± 0.16; (358.15 K) 2.38 ± 0.16. The activity coefficient (368.15 K) was determined as 2.4 ± 0.16.

For `CO` [methanol] + CC[S+](CC)CC.O=S(=O)([N-]S(=O)(=O)C(F)(F)F)C(F)(F)F, the activity coefficient amounted to 1.62 ± 0.11 (298.15 K); 1.48 ± 0.1 (308.15 K); 1.35 ± 0.09 (318.15 K); 1.25 ± 0.08 (328.15 K); 1.15 ± 0.07 (338.15 K); 1.07 ± 0.07 (348.15 K). For the same compound, the activity coefficient was 1 ± 0.06 (358.15 K) and 0.935 ± 0.059 (368.15 K).

In the case of `c1ccsc1` [thiophene] + CC[S+](CC)CC.O=S(=O)([N-]S(=O)(=O)C(F)(F)F)C(F)(F)F, the activity coefficient turned out to be 0.926 ± 0.059 (298.15 K); 0.935 ± 0.059 (308.15 K); 0.943 ± 0.059 (318.15 K); 0.951 ± 0.06 (328.15 K); 0.958 ± 0.06 (338.15 K); 0.965 ± 0.061 (348.15 K). Further, the activity coefficient by setting is: (358.15 K) 0.971 ± 0.061; (368.15 K) 0.977 ± 0.061.

As to `CCO` [ethanol] + CC[S+](CC)CC.O=S(=O)([N-]S(=O)(=O)C(F)(F)F)C(F)(F)F, the activity coefficient by setting is: (298.15 K) 2.15 ± 0.15; (308.15 K) 1.95 ± 0.13; (318.15 K) 1.77 ± 0.12; (328.15 K) 1.61 ± 0.11; (338.15 K) 1.48 ± 0.1; (348.15 K) 1.36 ± 0.09. Moreover, the activity coefficient was found to be 1.27 ± 0.08 (358.15 K) and 1.18 ± 0.08 (368.15 K).

For `C=CCCC` [1-pentene] + CC[S+](CC)CC.O=S(=O)([N-]S(=O)(=O)C(F)(F)F)C(F)(F)F, the activity coefficient reads like this: (298.15 K) 8.81 ± 0.6; (308.15 K) 8.41 ± 0.57; (318.15 K) 8.06 ± 0.55; (328.15 K) 7.72 ± 0.53; (338.15 K) 7.4 ± 0.5; (348.15 K) 7.17 ± 0.49. Besides, the activity coefficient is, setting by setting: (358.15 K) 6.89 ± 0.47; (368.15 K) 6.69 ± 0.46.

With `C=CCCCC` [hex-1-ene] + CC[S+](CC)CC.O=S(=O)([N-]S(=O)(=O)C(F)(F)F)C(F)(F)F, the activity coefficient reads like this: (298.15 K) 12.5 ± 0.9; (308.15 K) 11.8 ± 0.8; (318.15 K) 11.3 ± 0.8; (328.15 K) 10.6 ± 0.7; (338.15 K) 10.1 ± 0.7; (348.15 K) 9.69 ± 0.66. In addition, the activity coefficient turned out to be 9.3 ± 0.63 (358.15 K) and 8.94 ± 0.61 (368.15 K).

Turning to `C1CCCCC1` [cyclohexane] + CC[S+](CC)CC.O=S(=O)([N-]S(=O)(=O)C(F)(F)F)C(F)(F)F, the activity coefficient by setting is: (298.15 K) 16.1 ± 1.1; (308.15 K) 14.7 ± 1; (318.15 K) 13.5 ± 0.9; (328.15 K) 12.4 ± 0.8; (338.15 K) 11.6 ± 0.8; (348.15 K) 10.7 ± 0.7. Further, the activity coefficient runs as follows: (358.15 K) 10 ± 0.7; (368.15 K) 9.43 ± 0.64.

`CCCCCC` [hexane] + CC[S+](CC)CC.O=S(=O)([N-]S(=O)(=O)C(F)(F)F)C(F)(F)F: the activity coefficient by setting is: (298.15 K) 28.6 ± 2; (308.15 K) 26.2 ± 1.8; (318.15 K) 24 ± 1.6; (328.15 K) 22.1 ± 1.5; (338.15 K) 20.7 ± 1.4; (348.15 K) 19.2 ± 1.3. For the same compound, the activity coefficient (358.15 K) came to 18 ± 1.2 and the activity coefficient (368.15 K) worked out at 16.9 ± 1.2.

In the case of `C1CCCCCC1` [cycloheptane] + CC[S+](CC)CC.O=S(=O)([N-]S(=O)(=O)C(F)(F)F)C(F)(F)F, the activity coefficient reads like this: (298.15 K) 21.7 ± 1.5; (308.15 K) 19.8 ± 1.4; (318.15 K) 18 ± 1.2; (328.15 K) 16.5 ± 1.1; (338.15 K) 15.2 ± 1; (348.15 K) 14.1 ± 1. In addition, the activity coefficient worked out at 13.1 ± 0.9 (358.15 K) and 12.2 ± 0.8 (368.15 K).
